Results from ChEMBL document CHEMBL4507292 (2021).

How the values were obtained:
Caspase-7 (Homo sapiens) = Caspase-7 (Homo sapiens) (UniProt P55210); assay: Peptidase, CASP7 (Caspase 7) Eurofins-Panlabs enzyme assay; conditions: Compound concentration 10.0 uM
[1] = target: Glutamate receptor ionotropic, kainate (Rattus norvegicus) (UniProt P22756+Q01812+P42260+P42264+Q63273); assay: Inhibition of Glutamate, Kainate at 10 µM in the Eurofins-Panlabs radioligand binding assay (Eurofins_assay_232700); conditions: Compound concentration 10.0 uM
[2] = target: T1, Muscarinic acetylcholine receptor M5 (Homo sapiens) (UniProt P08912); assay: Inhibition of Muscarinic M5 at 10 µM in the Eurofins-Panlabs radioligand binding assay (Eurofins_assay_253010); design: ligand concentration 0.8 nM; conditions: Compound concentration 10.0 uM
T1 sequence (whole entry): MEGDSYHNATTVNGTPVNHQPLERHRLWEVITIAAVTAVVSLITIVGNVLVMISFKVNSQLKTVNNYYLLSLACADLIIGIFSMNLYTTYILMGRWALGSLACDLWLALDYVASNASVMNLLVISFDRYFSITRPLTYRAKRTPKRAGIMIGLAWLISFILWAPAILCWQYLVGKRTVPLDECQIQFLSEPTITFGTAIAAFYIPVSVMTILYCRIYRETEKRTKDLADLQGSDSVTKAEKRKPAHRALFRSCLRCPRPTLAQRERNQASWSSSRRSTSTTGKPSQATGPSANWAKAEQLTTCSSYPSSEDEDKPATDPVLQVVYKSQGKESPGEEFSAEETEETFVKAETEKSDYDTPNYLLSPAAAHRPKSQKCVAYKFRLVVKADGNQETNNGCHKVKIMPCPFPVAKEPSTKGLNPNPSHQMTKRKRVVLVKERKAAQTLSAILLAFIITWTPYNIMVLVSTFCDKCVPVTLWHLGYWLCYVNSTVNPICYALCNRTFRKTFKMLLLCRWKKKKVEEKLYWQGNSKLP

[3] = target: Sodium-dependent noradrenaline transporter (Homo sapiens, UniProt P23975)
Chain of Sodium-dependent noradrenaline transporter (P23975 whole entry): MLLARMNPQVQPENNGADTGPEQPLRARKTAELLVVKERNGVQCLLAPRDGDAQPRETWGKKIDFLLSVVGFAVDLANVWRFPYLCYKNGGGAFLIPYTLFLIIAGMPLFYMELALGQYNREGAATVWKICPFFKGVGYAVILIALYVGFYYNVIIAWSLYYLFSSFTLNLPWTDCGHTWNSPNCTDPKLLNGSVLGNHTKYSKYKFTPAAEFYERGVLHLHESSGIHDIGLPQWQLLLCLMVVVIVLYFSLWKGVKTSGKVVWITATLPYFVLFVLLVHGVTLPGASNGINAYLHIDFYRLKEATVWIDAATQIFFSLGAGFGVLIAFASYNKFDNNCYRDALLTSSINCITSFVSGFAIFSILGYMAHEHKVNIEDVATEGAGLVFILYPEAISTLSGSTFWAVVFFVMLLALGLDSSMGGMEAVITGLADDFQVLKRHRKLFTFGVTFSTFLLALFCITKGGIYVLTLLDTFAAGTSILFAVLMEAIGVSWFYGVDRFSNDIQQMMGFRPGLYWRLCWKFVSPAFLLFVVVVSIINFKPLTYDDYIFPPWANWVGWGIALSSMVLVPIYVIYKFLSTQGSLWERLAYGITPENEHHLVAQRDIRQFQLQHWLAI

[4] = target: Peroxisome proliferator-activated receptor gamma (Homo sapiens) (UniProt P37231); assay: PPARgamma Eurofins-Panlabs radioligand binding assay; design: ligand concentration 5 nM, non-specific ligand with concentration 0.5 µM L-797773, incubation time 18 h, incubation temperature 15 °C; conditions: Compound concentration 10.0 uM
Chain of Peroxisome proliferator-activated receptor gamma (Homo sapiens) (P37231 whole entry): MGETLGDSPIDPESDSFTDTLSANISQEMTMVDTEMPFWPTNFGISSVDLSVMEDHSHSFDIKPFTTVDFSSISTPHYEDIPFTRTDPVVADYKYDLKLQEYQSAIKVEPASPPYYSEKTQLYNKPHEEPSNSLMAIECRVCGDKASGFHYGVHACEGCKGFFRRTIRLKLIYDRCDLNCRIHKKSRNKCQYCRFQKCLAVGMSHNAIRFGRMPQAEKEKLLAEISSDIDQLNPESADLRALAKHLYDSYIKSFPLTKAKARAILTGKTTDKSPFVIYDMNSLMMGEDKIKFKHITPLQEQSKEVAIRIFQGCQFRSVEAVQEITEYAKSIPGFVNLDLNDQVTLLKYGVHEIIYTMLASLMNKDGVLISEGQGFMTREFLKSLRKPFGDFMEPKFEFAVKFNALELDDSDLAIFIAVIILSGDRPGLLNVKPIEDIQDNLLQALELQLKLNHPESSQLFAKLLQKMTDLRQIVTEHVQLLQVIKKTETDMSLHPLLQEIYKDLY

[5] = Protein Tyrosine Kinase, pp60 c-SRC Eurofins-Panlabs enzyme assay
Caspase-3 (Homo sapiens) = Caspase-3 (Homo sapiens) (UniProt P42574); assay: Peptidase, CASP3 (Caspase 3) Eurofins-Panlabs enzyme assay; conditions: Compound concentration 10.0 uM
[6] = target: Calcitonin receptor (Homo sapiens) (UniProt P30988); assay: Inhibition of Calcitonin at 10 µM in the Eurofins-Panlabs radioligand binding assay (Eurofins_assay_213610)
Chain of Calcitonin receptor (Homo sapiens) (P30988 whole entry): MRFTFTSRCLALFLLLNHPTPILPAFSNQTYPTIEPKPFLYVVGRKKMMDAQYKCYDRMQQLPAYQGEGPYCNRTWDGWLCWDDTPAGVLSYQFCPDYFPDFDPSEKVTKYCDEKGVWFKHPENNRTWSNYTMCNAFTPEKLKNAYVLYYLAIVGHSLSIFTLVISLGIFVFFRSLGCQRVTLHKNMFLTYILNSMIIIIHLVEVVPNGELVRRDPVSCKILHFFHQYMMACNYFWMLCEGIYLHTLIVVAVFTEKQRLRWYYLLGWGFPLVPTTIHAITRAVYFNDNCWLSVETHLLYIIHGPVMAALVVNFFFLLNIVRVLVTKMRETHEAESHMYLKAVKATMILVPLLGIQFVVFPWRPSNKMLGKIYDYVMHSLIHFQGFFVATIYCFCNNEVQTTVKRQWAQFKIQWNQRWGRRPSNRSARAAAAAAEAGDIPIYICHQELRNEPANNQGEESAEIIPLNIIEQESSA

[7] = Inhibition of Atrial Natriuretic Factor (ANF) at 10 µM in the Eurofins-Panlabs radioligand binding assay (Eurofins_assay_211000); conditions: Cavia porcellus
[8] = target: Somatostatin receptor type 1 (Homo sapiens) (UniProt P30872); assay: Somatostatin sst1 Eurofins-Panlabs radioligand binding assay; design: ligand concentration 0.1 nM; conditions: Compound concentration 10.0 uM
Chain of Somatostatin receptor type 1 (Homo sapiens) (P30872 whole entry): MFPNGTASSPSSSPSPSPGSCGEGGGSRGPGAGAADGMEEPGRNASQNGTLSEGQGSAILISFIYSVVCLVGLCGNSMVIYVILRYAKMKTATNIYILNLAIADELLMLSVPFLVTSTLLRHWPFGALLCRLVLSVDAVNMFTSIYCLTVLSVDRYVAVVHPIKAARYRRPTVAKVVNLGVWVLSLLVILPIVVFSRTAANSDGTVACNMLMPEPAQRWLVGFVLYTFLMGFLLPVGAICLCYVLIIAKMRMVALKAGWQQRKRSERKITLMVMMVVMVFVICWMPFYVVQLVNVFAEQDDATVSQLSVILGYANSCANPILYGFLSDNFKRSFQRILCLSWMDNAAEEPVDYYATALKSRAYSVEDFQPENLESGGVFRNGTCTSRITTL

Homo sapiens = species on record: Homo sapiens; assay: Estrogen ERbeta Eurofins-Panlabs radioligand binding assay; conditions: Compound concentration 10.0 uM
[9] = target: cGMP-dependent 3',5'-cyclic phosphodiesterase (Homo sapiens, UniProt O00408); assay: Phosphodiesterase PDE2 Eurofins-Panlabs enzyme assay; design: substrate with concentration [3H] cAMP + cAMP, incubation time 20 min, incubation temperature 25 °C
Chain of cGMP-dependent 3',5'-cyclic phosphodiesterase (O00408 whole entry): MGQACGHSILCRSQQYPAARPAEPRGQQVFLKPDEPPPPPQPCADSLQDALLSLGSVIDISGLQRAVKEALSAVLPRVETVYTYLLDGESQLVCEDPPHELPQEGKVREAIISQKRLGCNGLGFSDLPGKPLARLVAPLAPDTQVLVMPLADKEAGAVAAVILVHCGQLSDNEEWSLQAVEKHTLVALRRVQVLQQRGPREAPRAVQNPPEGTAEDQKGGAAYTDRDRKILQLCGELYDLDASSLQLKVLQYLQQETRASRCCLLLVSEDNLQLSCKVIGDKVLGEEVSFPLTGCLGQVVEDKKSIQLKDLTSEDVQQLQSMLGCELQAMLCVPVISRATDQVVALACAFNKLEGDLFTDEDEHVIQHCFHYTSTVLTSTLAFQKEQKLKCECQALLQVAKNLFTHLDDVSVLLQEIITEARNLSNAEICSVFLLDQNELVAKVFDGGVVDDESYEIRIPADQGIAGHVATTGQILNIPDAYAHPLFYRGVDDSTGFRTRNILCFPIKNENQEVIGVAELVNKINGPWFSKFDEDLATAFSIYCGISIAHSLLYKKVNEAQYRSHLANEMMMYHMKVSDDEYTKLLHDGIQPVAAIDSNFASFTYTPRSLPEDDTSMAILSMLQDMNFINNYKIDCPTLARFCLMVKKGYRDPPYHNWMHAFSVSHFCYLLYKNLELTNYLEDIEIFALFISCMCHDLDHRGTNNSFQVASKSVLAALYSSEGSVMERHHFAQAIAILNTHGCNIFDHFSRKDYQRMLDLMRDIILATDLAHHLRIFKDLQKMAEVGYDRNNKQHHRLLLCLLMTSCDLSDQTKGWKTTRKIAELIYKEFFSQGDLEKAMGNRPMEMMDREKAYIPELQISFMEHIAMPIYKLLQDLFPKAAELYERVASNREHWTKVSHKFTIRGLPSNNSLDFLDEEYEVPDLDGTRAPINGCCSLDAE

[10] = target: Protein kinase C alpha type (Homo sapiens) (UniProt P17252); assay: Inhibition of Protein Serine/Threonine Kinase, PRKCA (PKCα) at 10 µM in the Eurofins-Panlabs enzyme assay (Eurofins_assay_180010); design: substrate with concentration Histone, incubation time 10 min, incubation temperature 25 °C; conditions: Compound concentration […]
[11] = target: D(2) dopamine receptor (Homo sapiens) (UniProt P14416); conditions: Compound concentration 10.0 uM
[12] = target: Adenosine receptor A1 (Homo sapiens) (UniProt P30542); conditions: Compound concentration 10.0 uM
Chain of Adenosine receptor A1 (Homo sapiens) (P30542 whole entry): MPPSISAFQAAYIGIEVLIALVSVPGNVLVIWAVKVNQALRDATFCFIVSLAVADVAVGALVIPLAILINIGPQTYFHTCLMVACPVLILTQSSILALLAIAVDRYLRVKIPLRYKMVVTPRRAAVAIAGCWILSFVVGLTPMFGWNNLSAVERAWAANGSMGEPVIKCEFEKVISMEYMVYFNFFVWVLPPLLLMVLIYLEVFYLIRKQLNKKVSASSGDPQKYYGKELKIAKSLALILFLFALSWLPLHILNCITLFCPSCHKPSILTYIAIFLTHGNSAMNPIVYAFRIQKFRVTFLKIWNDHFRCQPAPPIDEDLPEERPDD

[13] = target: B1 bradykinin receptor (Homo sapiens) (UniProt P46663); assay: Bradykinin B1 Eurofins-Panlabs radioligand binding assay; conditions: Compound concentration 10.0 uM
[14] = target: voltage-gated sodium channel, site 2 (Rattus norvegicus, UniProt F1LQQ7+O08562+O88420+O88457+P04774+P04775+P08104+P15389+P15390+Q62968); assay: Inhibition of Sodium Channel, Site 2 at 10 µM in the Eurofins-Panlabs radioligand binding assay (Eurofins_assay_279510); type: protein assay; design: ligand concentration 5 nM, non-specific ligand with concentration 100 µM Veratridine, incubation time 60 min, incubation temperature 37 °C; conditions: male, Wistar, rat whole brain (except cerebellum) membranes, probe [3H] Batrachotoxinin, 5 nM, compound concentration 10 uM
Caspase-8 (Homo sapiens) = Caspase-8 (Homo sapiens) (UniProt Q14790); assay: Peptidase, CASP8 (Caspase 8) Eurofins-Panlabs enzyme assay; conditions: concentration not given here
Chain of Caspase-8 (Homo sapiens) (Q14790 217-374 limits assumed): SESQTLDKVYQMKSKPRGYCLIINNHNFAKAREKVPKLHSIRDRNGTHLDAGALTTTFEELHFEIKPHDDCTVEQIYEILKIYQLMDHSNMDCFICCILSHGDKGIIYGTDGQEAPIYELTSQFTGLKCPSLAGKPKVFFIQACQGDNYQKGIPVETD
Chain of Caspase-8 (Homo sapiens) (Q14790 385-479 limits assumed): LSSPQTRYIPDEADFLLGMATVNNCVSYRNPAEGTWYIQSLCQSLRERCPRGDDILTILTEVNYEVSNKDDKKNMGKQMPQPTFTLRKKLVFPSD

[15] = target: Glucocorticoid receptor (Homo sapiens) (UniProt P04150); assay: Glucocorticoid Eurofins-Panlabs radioligand binding assay; conditions: Compound concentration 10.0 uM
D(1B) dopamine receptor = D(1B) dopamine receptor (Homo sapiens, UniProt P21918); assay: Dopamine D5 Eurofins-Panlabs radioligand binding assay; conditions: concentration not given here
Chain of D(1B) dopamine receptor (P21918 whole entry): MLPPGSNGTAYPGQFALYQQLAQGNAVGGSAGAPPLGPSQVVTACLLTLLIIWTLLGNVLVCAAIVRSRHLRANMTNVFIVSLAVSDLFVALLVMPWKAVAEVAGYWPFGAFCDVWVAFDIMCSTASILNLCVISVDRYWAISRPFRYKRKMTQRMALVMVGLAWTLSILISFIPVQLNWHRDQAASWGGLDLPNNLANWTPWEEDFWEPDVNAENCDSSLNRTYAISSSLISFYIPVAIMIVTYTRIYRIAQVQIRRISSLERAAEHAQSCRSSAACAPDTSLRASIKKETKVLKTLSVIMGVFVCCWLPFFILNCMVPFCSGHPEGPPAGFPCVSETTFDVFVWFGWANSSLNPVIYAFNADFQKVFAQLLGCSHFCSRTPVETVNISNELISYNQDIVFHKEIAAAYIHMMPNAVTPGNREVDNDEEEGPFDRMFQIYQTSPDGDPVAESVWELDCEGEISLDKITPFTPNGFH

[16] = target: T2, Alpha-1D adrenergic receptor (Homo sapiens) (UniProt P25100); assay: Inhibition of Adrenergic alpha1D at 10 µM in the Eurofins-Panlabs radioligand binding assay (Eurofins_assay_203400); conditions: Compound concentration 10.0 uM
T2 sequence (whole entry): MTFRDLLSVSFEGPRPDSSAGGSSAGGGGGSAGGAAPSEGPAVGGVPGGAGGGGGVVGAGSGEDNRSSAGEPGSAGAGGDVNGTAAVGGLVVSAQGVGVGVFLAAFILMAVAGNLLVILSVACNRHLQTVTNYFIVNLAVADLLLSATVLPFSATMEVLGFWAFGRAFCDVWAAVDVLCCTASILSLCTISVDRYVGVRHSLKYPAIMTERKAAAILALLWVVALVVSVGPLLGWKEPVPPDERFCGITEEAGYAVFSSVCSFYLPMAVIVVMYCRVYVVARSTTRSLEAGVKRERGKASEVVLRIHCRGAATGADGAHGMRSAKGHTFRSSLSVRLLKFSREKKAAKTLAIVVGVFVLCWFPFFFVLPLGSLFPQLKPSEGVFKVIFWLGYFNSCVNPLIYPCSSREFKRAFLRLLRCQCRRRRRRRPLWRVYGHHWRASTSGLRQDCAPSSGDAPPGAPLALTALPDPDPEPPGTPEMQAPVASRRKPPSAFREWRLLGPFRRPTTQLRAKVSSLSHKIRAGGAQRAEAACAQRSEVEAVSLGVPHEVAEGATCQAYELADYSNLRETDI

Chain of Caspase-7 (Homo sapiens) (P55210 24-198 limits assumed): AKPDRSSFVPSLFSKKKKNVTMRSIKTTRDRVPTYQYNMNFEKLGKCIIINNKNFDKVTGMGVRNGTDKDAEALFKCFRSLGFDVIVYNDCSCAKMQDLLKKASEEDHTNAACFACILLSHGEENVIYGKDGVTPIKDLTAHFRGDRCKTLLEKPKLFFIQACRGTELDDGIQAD
Chain of Caspase-7 (Homo sapiens) (P55210 207-303 limits assumed): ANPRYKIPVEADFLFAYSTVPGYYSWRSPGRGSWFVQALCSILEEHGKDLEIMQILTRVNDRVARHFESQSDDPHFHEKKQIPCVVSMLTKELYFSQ

O=C(O)c1cc(-c2ccc(C3CCNCC3)cc2)c2ccc(-c3ccc(C(F)(F)F)cc3)cc2c1 [PPTN]
9.02 µM: IC50 [5]
86.9 µM: IC50 [9]
inactive: inhibition (Caspase-7 (Homo sapiens)) -6% | inhibition [1] -1% | inhibition [2] 39% | inhibition ([3]; Compound concentration 0.01 uM) 6% | inhibition ([3]; Compound concentration 0.1 uM) -2% | inhibition ([3]; Compound concentration 1.0 uM) 20% | inhibition [4] 4% | inhibition (Caspase-3 (Homo sapiens)) 3% | inhibition [6] 5% | inhibition [8] 34% | inhibition (Homo sapiens) 1% | inhibition ([9]; Compound concentration 1.0 uM) -3% | inhibition ([9]; Compound concentration 10.0 uM) 4% | inhibition [10] 29% | inhibition [11] 28% | inhibition [12] -2% | inhibition [13] 12% | inhibition (Caspase-8 (Homo sapiens)) 7% | inhibition [15] -9% | inhibition (D(1B) dopamine receptor) 7% | inhibition [16] -5%
active: inhibition ([3]; Compound concentration 10.0 uM) 78% | inhibition ([9]; Compound concentration 100.0 uM) 55%
-1% (not active): inhibition at 10 µM [7]
-10% (not active): inhibition at 60 min, 10 µM [14]
